Tests used:
human TLR7 = human TLR7 (Homo sapiens (Human), UniProt Q9NYK1); assay: TLR7 inhibition reporter assay (HEK-Blue SEAP); type: cell-based; details: HEK-Blue cells overexpressing human TLR7, gardiquimod 7.5 μM stimulation, SEAP reporter
human TLR8 = human TLR8 (Homo sapiens (Human), UniProt Q9NR97); assay: TLR8 inhibition reporter assay (HEK-Blue SEAP); details: read-out: TLR8 IC50; HEK-Blue cells overexpressing human TLR8, R848 15.9 μM stimulation, SEAP reporter;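 further: SEAP driven by IFN-β minimal promoter carrying NF-κB and AP-1 sites, compounds dosed 0.05 nM to 50 µM for 22 h, inhibition scaled between agonist-plus-DMSO and reference-inhibitor wells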
human TLR9 = human TLR9 (Homo sapiens (Human), UniProt Q9NR96); assay: TLR9 inhibition reporter assay (HEK-Blue SEAP); details: read-out: TLR9 IC50; HEK-Blue cells overexpressing human TLR9, ODN2006 5 nM stimulation, SEAP reporter;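 further: SEAP driven by an IFN-β minimal promoter with NF-κB and AP-1 sites, read after 22 h, compounds dosed 0.05 nM–50 µM, inhibition scaled between agonist plus DMSO and reference-inhibitor wells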
human TLR9, sequence (Q9NR96 26-1032): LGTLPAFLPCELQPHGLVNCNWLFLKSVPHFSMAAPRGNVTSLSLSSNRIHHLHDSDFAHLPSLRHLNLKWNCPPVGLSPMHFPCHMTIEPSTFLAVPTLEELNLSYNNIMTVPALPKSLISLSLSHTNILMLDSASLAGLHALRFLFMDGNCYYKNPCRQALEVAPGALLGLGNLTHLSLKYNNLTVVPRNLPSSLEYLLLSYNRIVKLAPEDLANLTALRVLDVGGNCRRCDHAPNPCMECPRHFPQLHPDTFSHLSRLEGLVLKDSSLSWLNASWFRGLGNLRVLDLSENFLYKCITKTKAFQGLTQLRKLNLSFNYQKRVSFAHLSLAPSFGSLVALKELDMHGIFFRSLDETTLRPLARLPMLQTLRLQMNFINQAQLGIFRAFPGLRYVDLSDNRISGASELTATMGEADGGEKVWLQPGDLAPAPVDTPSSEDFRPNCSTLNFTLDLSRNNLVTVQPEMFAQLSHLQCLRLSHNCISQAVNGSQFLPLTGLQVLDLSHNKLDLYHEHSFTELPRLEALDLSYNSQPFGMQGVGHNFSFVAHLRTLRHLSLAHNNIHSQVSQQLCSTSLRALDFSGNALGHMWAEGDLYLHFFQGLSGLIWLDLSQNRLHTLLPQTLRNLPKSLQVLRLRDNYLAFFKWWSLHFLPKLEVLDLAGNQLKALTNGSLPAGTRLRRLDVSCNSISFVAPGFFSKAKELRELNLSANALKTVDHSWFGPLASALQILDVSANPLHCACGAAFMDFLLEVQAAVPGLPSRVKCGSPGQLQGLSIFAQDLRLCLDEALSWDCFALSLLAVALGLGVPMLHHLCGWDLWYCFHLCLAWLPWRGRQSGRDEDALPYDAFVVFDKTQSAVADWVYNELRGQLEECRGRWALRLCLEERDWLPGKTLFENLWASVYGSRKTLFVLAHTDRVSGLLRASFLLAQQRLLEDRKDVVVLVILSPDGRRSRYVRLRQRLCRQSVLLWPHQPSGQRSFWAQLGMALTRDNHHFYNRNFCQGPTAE

human TLR7, sequence (Q9NYK1 27-1049): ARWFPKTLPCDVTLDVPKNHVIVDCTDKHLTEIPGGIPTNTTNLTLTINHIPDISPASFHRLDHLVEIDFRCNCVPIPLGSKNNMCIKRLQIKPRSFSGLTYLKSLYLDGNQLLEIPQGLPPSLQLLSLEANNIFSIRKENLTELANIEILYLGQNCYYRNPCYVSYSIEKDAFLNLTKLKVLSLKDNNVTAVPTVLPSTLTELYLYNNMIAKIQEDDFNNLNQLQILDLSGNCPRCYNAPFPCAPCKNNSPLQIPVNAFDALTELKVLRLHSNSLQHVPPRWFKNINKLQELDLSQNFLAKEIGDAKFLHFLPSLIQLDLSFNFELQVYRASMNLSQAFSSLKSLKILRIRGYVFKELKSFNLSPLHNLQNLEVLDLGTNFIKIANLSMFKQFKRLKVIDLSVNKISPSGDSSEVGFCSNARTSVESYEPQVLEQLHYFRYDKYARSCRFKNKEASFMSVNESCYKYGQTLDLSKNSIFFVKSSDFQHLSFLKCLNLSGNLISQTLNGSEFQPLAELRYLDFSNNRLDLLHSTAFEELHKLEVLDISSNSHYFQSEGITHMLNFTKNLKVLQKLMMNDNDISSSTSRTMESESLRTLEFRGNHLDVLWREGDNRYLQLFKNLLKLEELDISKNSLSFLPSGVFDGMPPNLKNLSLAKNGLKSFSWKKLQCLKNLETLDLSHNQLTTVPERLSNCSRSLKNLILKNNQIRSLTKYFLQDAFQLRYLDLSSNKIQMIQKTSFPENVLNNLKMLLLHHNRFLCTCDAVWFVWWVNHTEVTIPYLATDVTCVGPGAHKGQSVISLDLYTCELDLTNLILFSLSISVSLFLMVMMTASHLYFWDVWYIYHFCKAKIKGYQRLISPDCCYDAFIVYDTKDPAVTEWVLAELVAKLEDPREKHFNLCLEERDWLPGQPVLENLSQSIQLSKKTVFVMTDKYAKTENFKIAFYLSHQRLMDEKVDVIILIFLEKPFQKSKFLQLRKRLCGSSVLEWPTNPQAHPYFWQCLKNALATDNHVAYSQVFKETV
human TLR8, sequence (Q9NR97 27-1041): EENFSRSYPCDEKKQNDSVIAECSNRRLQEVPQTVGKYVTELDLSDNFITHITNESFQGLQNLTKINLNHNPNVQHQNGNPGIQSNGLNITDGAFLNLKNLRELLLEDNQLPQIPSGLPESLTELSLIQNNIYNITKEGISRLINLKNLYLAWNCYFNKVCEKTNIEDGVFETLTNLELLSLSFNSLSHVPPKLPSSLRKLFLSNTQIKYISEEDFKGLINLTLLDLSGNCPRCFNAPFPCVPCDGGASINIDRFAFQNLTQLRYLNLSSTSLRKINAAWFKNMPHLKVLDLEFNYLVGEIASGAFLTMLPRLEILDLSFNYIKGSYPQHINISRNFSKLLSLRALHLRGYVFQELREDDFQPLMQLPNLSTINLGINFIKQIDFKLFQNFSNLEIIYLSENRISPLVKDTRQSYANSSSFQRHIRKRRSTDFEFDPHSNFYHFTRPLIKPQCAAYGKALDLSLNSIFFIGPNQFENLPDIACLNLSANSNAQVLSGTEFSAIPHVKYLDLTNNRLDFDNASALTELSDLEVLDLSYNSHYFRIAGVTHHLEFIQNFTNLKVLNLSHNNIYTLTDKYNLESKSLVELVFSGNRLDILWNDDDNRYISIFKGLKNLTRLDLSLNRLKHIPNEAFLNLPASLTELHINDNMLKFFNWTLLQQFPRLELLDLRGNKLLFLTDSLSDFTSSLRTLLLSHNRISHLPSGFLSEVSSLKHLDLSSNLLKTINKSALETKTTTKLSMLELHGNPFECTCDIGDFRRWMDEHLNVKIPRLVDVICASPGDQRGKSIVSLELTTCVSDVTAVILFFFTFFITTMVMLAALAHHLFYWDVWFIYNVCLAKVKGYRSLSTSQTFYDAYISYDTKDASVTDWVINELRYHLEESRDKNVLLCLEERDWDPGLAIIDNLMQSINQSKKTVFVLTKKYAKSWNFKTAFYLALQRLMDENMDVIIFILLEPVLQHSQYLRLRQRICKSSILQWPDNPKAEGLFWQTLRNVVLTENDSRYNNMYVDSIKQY

Row | SMILES | IC50 (human TLR7) | IC50 (human TLR8) | IC50 (human TLR9)
1 | CC(C)c1c(-c2cn(CCS(C)(=O)=O)c3ncccc23)[nH]c2ccc(C3CCC(NCC4(S(C)(=O)=O)CC4)CC3)nc12 (stereo not drawn) [Example 262] | 170 nM | 19 nM | 354 nM
2 | CNC1CCC(c2ccc3[nH]c(-c4cn(CC#N)c5ncccc45)c(C(C)C)c3n2)CC1 (stereo not drawn) [Example 263] | 6.2 nM | 7.6 nM | 338 nM
3 | CNC1CCC(c2ccc3[nH]c(-c4cn(CCS(C)(=O)=O)c5ncccc45)c(C(C)C)c3n2)CC1 (stereo not drawn) [Example 264] | 55 nM | 42 nM | 255 nM
4 | CC(C)c1c(-c2cn(C)c3ncccc23)[nH]c2ccc(C3CCC(NC4CCOCC4)CC3)nc12 (stereo not drawn) [Example 265] | 0.59 nM | 0.91 nM | 392 nM
5 | CC(C)c1c(-c2cn(CCS(C)(=O)=O)c3ncccc23)[nH]c2ccc(C3CCC(NC4CCOCC4)CC3)nc12 (stereo not drawn) [Example 266] | 45 nM | 13 nM | 322 nM
6 | CC(C)c1c(-c2cn(CC#N)c3ncccc23)[nH]c2ccc(C3CCC(NC4CCOCC4)CC3)nc12 (stereo not drawn) [Example 268] | 94 nM | 32 nM | 578 nM
7 | CNC1CCC(c2ccc3[nH]c(-c4cn(CCS(C)(=O)=O)c5ncccc45)c(C(C)C)c3n2)CC1 (stereo not drawn) [Example 269] | 223 nM | 88 nM | 670 nM
8 | CNC1CCC(c2ccc3[nH]c(-c4cn(CC#N)c5ncccc45)c(C(C)C)c3n2)CC1 (stereo not drawn) [Example 270] | 38 nM | 28 nM | 322 nM
9 | CC(C)c1c(-c2cn(CCS(C)(=O)=O)c3ncccc23)[nH]c2ccc(C3CCC(NC4CCCOC4)CC3)nc12 (stereo not drawn) [Example 271] | 120 nM | 40 nM | 228 nM
10 | CC(C)c1c(-c2cn(CC#N)c3ncccc23)[nH]c2ccc(C3CCC(NCC(=O)N(C)C)CC3)nc12 (stereo not drawn) [Example 272] | 76 nM | 50 nM | 398 nM
11 | CC(C)c1c(-c2cn(CC#N)c3ncccc23)[nH]c2ccc(C3CCC(NC4CCCOC4)CC3)nc12 (stereo not drawn) [Example 274] | 8.5 nM | 3.7 nM | 474 nM
12 | CC(C)c1c(-c2cn(CC#N)c3ncccc23)[nH]c2ccc(C3CCC(NCCS(C)(=O)=O)CC3)nc12 (stereo not drawn) [Example 275] | 14 nM | 8.5 nM | 684 nM
13 | CC(C)c1c(-c2cn(CC#N)c3ncccc23)[nH]c2ccc(C3CCC(NCC(=O)N(C)C)CC3)nc12 (stereo not drawn) [Example 276] | 8.9 nM | 9 nM | 309 nM
14 | COc1cc(-c2[nH]c3ccc(C4CCC(N(CC#N)C5COC5)CC4)nc3c2C(C)C)cn2ncnc12 (stereo not drawn) [Example 277] | 0.4 nM | 1.6 nM | 1380 nM
15 | CC(C)c1c(-c2cn(C)c3ncccc23)[nH]c2ccc(C3CCC(NCC(C)(C)S(C)(=O)=O)CC3)nc12 (stereo not drawn) [Example 278] | 1.5 nM | 1.2 nM | 837 nM
16 | Cc1cc(-c2[nH]c3ccc(C4CCC(NC5COC5)CC4)nc3c2C(C)C)cn2ncnc12 (stereo not drawn) [Example 279] | 0.31 nM | 1.4 nM | 1820 nM
17 | Cc1cc(-c2[nH]c3ccc(C4CCC(NCC(=O)N(C)C)CC4)nc3c2C(C)C)cn2ncnc12 (stereo not drawn) [Example 280] | 1.1 nM | 7.2 nM | 1270 nM
18 | Cc1cc(-c2[nH]c3ccc(C4CCC(N5CC6(COC6)C5)CC4)nc3c2C(C)C)cn2ncnc12 (stereo not drawn) [Example 281] | 0.48 nM | 1.7 nM | 880 nM

Row | SMILES | IC50 (human TLR7) | IC50 (human TLR8) | IC50 (human TLR9)
19 | Cc1cc(-c2[nH]c3ccc(C4CCC(N5CC6(COC6)C5)CC4)nc3c2C(C)C)cc(C)n1 (stereo not drawn) [Example 283] | 0.92 nM | 1.4 nM | 298 nM
20 | Cc1cc(-c2[nH]c3ccc(C4CCC(NC5COC5)CC4)nc3c2C(C)C)cc(C)n1 (stereo not drawn) [Example 287] | 25 nM | 33 nM | 2360 nM
21 | Cc1cc(-c2[nH]c3ccc(C4CCC(N5CC6(COC6)C5)CC4)nc3c2C(C)C)cn2ncnc12 (stereo not drawn) [Example 288] | 28 nM | 114 nM | 6450 nM
22 | CCn1cc(-c2[nH]c3ccc(C4CCC(NC5CCOCC5)CC4)nc3c2C(C)C)c2cccnc21 (stereo not drawn) [Example 289] | 3.5 nM | 11 nM | 967 nM
23 | CCn1cc(-c2[nH]c3ccc(C4CCC(NC5CCOCC5)CC4)nc3c2C(C)C)c2cccnc21 (stereo not drawn) [Example 292] | 99 nM | 127 nM | 1620 nM
24 | CNC1CCC(c2ccc3[nH]c(-c4cn(CCO)c5ncccc45)c(C(C)C)c3n2)CC1 (stereo not drawn) [Example 295] | 11 nM | 11 nM | 883 nM
25 | CNC1CCC(c2ccc3[nH]c(-c4cn(C)c5ncncc45)c(C(C)C)c3n2)CC1 (stereo not drawn) [Example 296] | 0.59 nM | 6.8 nM | 600 nM
26 | CNC1CCC(c2ccc3[nH]c(-c4cn(C)c5nccnc45)c(C(C)C)c3n2)CC1 (stereo not drawn) [Example 297] | 8.4 nM | 15 nM | 885 nM
27 | CNC1CCC(c2ccc3[nH]c(-c4cn(CCO)c5ncccc45)c(C(C)C)c3n2)CC1 (stereo not drawn) [Example 299] | 10 nM | 6 nM | 680 nM
28 | CNC1CCC(c2ccc3[nH]c(-c4cn(C)c5nccnc45)c(C(C)C)c3n2)CC1 (stereo not drawn) [Example 300] | 48 nM | 286 nM | 9050 nM
29 | CNC1CCC(c2ccc3[nH]c(-c4cn(C)c5ncncc45)c(C(C)C)c3n2)CC1 (stereo not drawn) [Example 301] | 2 nM | 42 nM | 4090 nM
30 | CNC1CCC(c2ccc3[nH]c(-c4cn(C)c5ncccc45)c(C(C)C)c3n2)CC1 (stereo not drawn) [Example 302] | 0.74 nM | 4.9 nM | 739 nM
31 | CC(C)c1c(-c2cn(C)c3ncncc23)[nH]c2ccc(C3CCC(NCCS(C)(=O)=O)CC3)nc12 (stereo not drawn) [Example 304] | 0.53 nM | 1.8 nM | 1070 nM
32 | CC(C)c1c(-c2cn(C)c3ncncc23)[nH]c2ccc(C3CCC(NC4CCOCC4)CC3)nc12 (stereo not drawn) [Example 305] | 4 nM | 16 nM | 8240 nM
33 | CC(C)c1c(-c2cc(CO)c3ncnn3c2)[nH]c2ccc(C3CCC(N(C)Cc4ccc(F)cc4)CC3)nc12 (stereo not drawn) [Example 306] | 13 nM | 61 nM | 10100 nM
34 | COc1cc(-c2[nH]c3cc(C)c(C4CCC(NC5COC5)CC4)nc3c2C(C)C)cn2ncnc12 (stereo not drawn) [Example 309] | 0.31 nM | 4.6 nM | 268 nM
35 | COc1cc(-c2[nH]c3cc(C)c(C4CCC(NC5(C)COC5)CC4)nc3c2C(C)C)cn2ncnc12 (stereo not drawn) [Example 310] | 0.39 nM | 4.1 nM | 1780 nM

Further compounds by falling IC50 (human TLR7), results first:

Row | IC50 (human TLR7) | IC50 (human TLR8) | IC50 (human TLR9) | SMILES
36 | 527 nM | 173 nM | 10900 nM | CC(C)c1c(-c2cn(CCS(C)(=O)=O)c3ncccc23)[nH]c2ccc(C3CCC(O)CC3)nc12 (stereo not drawn) [Example 260]
37 | 262 nM | 90 nM | 381 nM | CC(C)c1c(-c2cn(CCS(C)(=O)=O)c3ncccc23)[nH]c2ccc(C3CCC(NCC(=O)N(C)C)CC3)nc12 (stereo not drawn) [Example 261]
38 | 85 nM | 174 nM | 2270 nM | CCn1cc(-c2[nH]c3ccc(C4CCC(N5CC6(COC6)C5)CC4)nc3c2C(C)C)c2cccnc21 (stereo not drawn) [Example 294]
39 | 75 nM | 66 nM | 1110 nM | CC(C)c1c(-c2cn(CC#N)c3ncccc23)[nH]c2ccc(C3CCC(NCCS(C)(=O)=O)CC3)nc12 (stereo not drawn) [Example 273]
40 | 75 nM | 208 nM | 5640 nM | CCn1cc(-c2[nH]c3ccc(C4CCC(O)CC4)nc3c2C(C)C)c2cccnc21 (stereo not drawn) [Example 293]
41 | 11 nM | 11 nM | 3960 nM | CC(C)c1c(-c2cc(CO)c3ncnn3c2)[nH]c2ccc(C3CCC(NCCC(F)(F)F)CC3)nc12 (stereo not drawn) [Example 308]
42 | 5.2 nM | 9.2 nM | 1570 nM | Cc1cc(-c2[nH]c3ccc(C4CCC(N5CC6(COC6)C5)CC4)nc3c2C(C)C)cc(C)n1 (stereo not drawn) [Example 286]
43 | 3.6 nM | 5.5 nM | 2310 nM | CC(C)c1c(-c2cn(C)c3ncccc23)[nH]c2ccc(C3CCC(NCC(C)(C)S(C)(=O)=O)CC3)nc12 (stereo not drawn) [Example 285]
44 | 3 nM | 15 nM | 4040 nM | Cc1cc(-c2[nH]c3ccc(C4CCC(NC5COC5)CC4)nc3c2C(C)C)cn2ncnc12 (stereo not drawn) [Example 284]
45 | 2.8 nM | 44 nM | 2020 nM | COc1cc(-c2[nH]c3cc(C)c(C4CCC(NC5(C)COC5)CC4)nc3c2C(C)C)cn2ncnc12 (stereo not drawn) [Example 311]
46 | 2.6 nM | 11 nM | 735 nM | CCn1cc(-c2[nH]c3ccc(C4CCC(NCC(=O)N(C)C)CC4)nc3c2C(C)C)c2cccnc21 (stereo not drawn) [Example 291]
47 | 2.1 nM | 6.3 nM | 425 nM | CCn1cc(-c2[nH]c3ccc(C4CCC(N5CC6(COC6)C5)CC4)nc3c2C(C)C)c2cccnc21 (stereo not drawn) [Example 290]
48 | 1.9 nM | 2.6 nM | 453 nM | CC(C)c1c(-c2cn(C)c3ncccc23)[nH]c2ccc(C3CCC(NC4CCOCC4)CC3)nc12 (stereo not drawn) [Example 267]
49 | 0.86 nM | 2.7 nM | 2980 nM | CC(C)c1c(-c2cc(CO)c3ncnn3c2)[nH]c2ccc(C3CCC(NCCC(F)(F)F)CC3)nc12 (stereo not drawn) [Example 307]
50 | 0.55 nM | 6.9 nM | 1230 nM | CC(C)c1c(-c2cn(C)c3ncncc23)[nH]c2ccc(C3CCC(NCC(=O)N(C)C)CC3)nc12 (stereo not drawn) [Example 303]
51 | 0.32 nM | 0.91 nM | 661 nM | Cc1cc(-c2[nH]c3ccc(C4CCC(NC5COC5)CC4)nc3c2C(C)C)cc(C)n1 (stereo not drawn) [Example 282]

Source: patent publication US10544143B2, “4-azaindole compounds” (BRISTOL-MYERS SQUIBB COMPANY, priority 2017, dated 2020)
